Entries after “also recorded” stand apart in the source; their conditions may differ. Blank lines part the entries; values can stand above or below the molecule they belong to.
Experiments:
[1] = Nucleation induction time of AAP from ethanol in the presence of crystalline substrates; type: physicochemical; conditions: AAP Form I from ethanol; for Average induction times, τ: σ = 0.36, 15° C.; for Change in τ compared to bulk nucleation: σ = 0.36
Protocol: 1.5 mL aliquots of the stock solution were then syringe filtered into HPLC vials through a 0.2 μm nylon membrane in order to remove solid impurities. Crystallisations were carried out using a RS10 Clarity Solubility Station with non-intrusive infrared transmission probes and Integrity Client Software. The vials were initially held for 30 mins at 40° C. to ensure complete dissolution of AAP had occurred. After which they were cooled to 15° C. at a rate of 5° C./min and held at this temperature over a 24 hour period whilst the turbidity of the solution was monitored. Over the course of the experiments the stirring speed in each vial was held constant at 700 rpm. For those crystallizations requiring substrate, 3 mg was used. […] For each system studied 50 crystallisations were carried out to ensure a sufficient number of data points were obtained for statistical analysis.
The effectiveness of the five chosen substrates at promoting nucleation of AAP was measured by determining their effect on the nucleation induction time, τ. […] X-ray powder diffraction was used to confirm that it was the nucleation induction time of Form I being measured in all cases with any additional peaks in the diffraction patterns correspond to the substrates.
The percentage of vials crystallized as a function of time were plotted to give cumulative probability distributions of nucleation induction time for each system tested. […] It was assumed that nucleation follows a Poisson distribution (Equation 1). λ is the expected number of occurrences in the interval and k is the exact number of occurrences. If k=0 and […], then the probability of observing no nucleation events within a time, t, is given by equation 2 which is consistent with first order kinetic expressions previously used for studying nucleation events.
Using linear regression, plotting ln(P) against t (FIG. 10), the average induction times and associated errors were calculated (Table 3).

[2] = cited from earlier work; for Stability of the polymorph: ambient conditions / air
[3] = Polymorph obtained on crystallization of AAP from ethanol with or without crystalline substrate (DSC, XRPD); type: physicochemical; conditions: supersaturation 0.49 with respect to Form I; for Polymorphic form of AAP crystallized in the presence of substrate: substrate seeds added, DSC/XRPD, label = substrate
Description: Such an observation implies that for both polymorphs their nucleation rate constants follow the relationship kI>kII. It was hypothesized crystalline substrates would be able to selectively crystallize Form II if they fit the following two core criteria: 1) the unit cell parameters of the substrate were substantially similar to that of Form II and 2) the molecular functionality of the compound acting as the substrate is similar to that of AAP. By constraining the crystallographic properties of the substrate in this way, a three dimensional lattice match with Form II was targeted. Furthermore, selection of compounds with similar functionality as AAP was selected to stabilize the formation of a nucleus through favorable interactions such as hydrogen bonds.
The crystallizations of AAP from ethanol were then repeated in the presence of 50 mg of 4-APAA seeds, added after the desired supersaturation had been achieved. Once crystallization occurred, the crystals were filtered immediately and analyzed by DSC and x-ray powder diffraction. […] Furthermore no melting endotherm for Form I which is often observed in DSC traces of apparently pure Form II.
A plot of dimensionless potential energy (V/V0) as a function of orientation angle (θ) for the interacting (001) faces of Form II acetaminophen and graphite was prepared. The EpiCalc calculation was performed using the following lattice values for the (001) faces of Form II acetaminophen and graphite: (001) Form II acetaminophen: a=17.1657 Å, b=11.7773 and Å and β=90° (001); graphite: a=b=2.456 Å and α=90°. The acetaminophen overlayer dimensions were 25×25 cells and the orientation angle range tested was 180° with a step size of 0.25°.

[4] = Polymorph obtained on crystallization of 3-ABSA from water with or without AMMP substrate (XRPD)
[5] = 3 mg substrate, 700 rpm, 50 crystallisations, label = substrate

SMILES: Nc1cccc(S(=O)(=O)O)c1 [3-ABSA Form II, 3-aminobenzenesulfonic acid]
Stability of the polymorph [2]: thermodynamically most stable form under ambient conditions

SMILES: Nc1cccc(S(=O)(=O)O)c1 [3-ABSA, 3-aminobenzenesulfonic acid]
Polymorphic form of 3-ABSA crystallized without substrate ([4]; aqueous solution, no substrate): only Form II was obtained; also recorded: Form II had crystallized

SMILES: CC(=O)Nc1ccc(O)cc1 [AAP Form II, acetaminophen]
Time until Form I crystallizes via solvent mediated phase transformation when seeding with Form II ([2]; in solution, seeded with Form II): ≤ 15 min | Temperature of solid state transformation to Form I ([2]; solid state): Above 60 °C

SMILES: COc1cc(C)nc(N)n1 [AMMP]
Polymorphic form of 3-ABSA crystallized in the presence of substrate ([4]; aqueous solution saturated at 50° C., cooled to 10° C., 50 mg AMMP seeds, label = substrate): Form I crystallized; also recorded: a mixture of Forms I and II was obtained

SMILES: CC(=O)Nc1ccc(O)cc1 [AAP Form III, acetaminophen]
Stability of the polymorph [2]: highly unstable in air

SMILES: O.OC[C@H]1O[C@@H](O[C@H]2[C@H](O)[C@@H](O)[C@@H](O)O[C@@H]2CO)[C@H](O)[C@@H](O)[C@H]1O [α-LMH, α-lactose monohydrate]
Average induction times, τ [1, 5]: 410 ± 11 min | Change in τ compared to bulk nucleation ([1]; label = substrate): largest reduction in τ | Polymorphic form of AAP crystallized in the presence of substrate [3]: Form I

Second part, led by results:

Average induction times, τ ([1]; bulk nucleation, no substrate): 1930 ± 85 min
SMILES: CC(=O)Nc1ccc(O)cc1 [AAP Form I, acetaminophen, reference compound]
Stability of the polymorph [2]: thermodynamically stable phase under ambient conditions

Average induction times, τ [1, 5]: 390 ± 8 min | Change in τ compared to bulk nucleation ([1]; label = substrate): largest reduction in τ | Polymorphic form of AAP crystallized in the presence of substrate [3]: Form I
SMILES: OC[C@@H](O)[C@@H](O)[C@H](O)[C@H](O)CO [D-mannitol]

Polymorphic form of AAP crystallized in the presence of substrate [3]: Form II crystallized
SMILES: Nc1ccc(CC(=O)O)cc1 [4-APAA, 4-aminophenylacetic acid]

Average induction times, τ [1, 5]: 1910 ± 95 min | Change in τ compared to bulk nucleation ([1]; label = substrate): no measureable decrease in τ
SMILES: N[C@@H](Cc1c[nH]cn1)C(=O)O [L-histidine]

Polymorphic form of AAP crystallized without substrate [3]: only Form I was obtained
SMILES: CC(=O)Nc1ccc(O)cc1 [AAP, acetaminophen, reference compound]

Polymorphic form of AAP crystallized in the presence of substrate [3]: Form I
SMILES: [Cl-].[Na+] [Sodium Chloride, sodium chloride]

Source: US9822467B2, “Methods and systems relating to the selection of substrates comprising crystalline templates for the controlled crystallization of molecular species” (Massachusetts Institute of Technology, priority 2011, dated 2017)
